According to publication PMC4710668, “Bioactivation of food genotoxicants 5-hydroxymethylfurfural and furfuryl alcohol by sulfotransferases from human, mouse and rat: a comparative study” (Archives of Toxicology, 2014):

Assays:
Test in all cases: HMF sulfoconjugation assay
Format in all cases: biochemical
hSULT4A1 = molecular target: T1, hSULT4A1 (Homo sapiens, UniProt Q9BR01)
T1 construct: made in house; host or cells: Salmonella typhimurium TA1538 (cytosolic fraction, not purified)
T1 sequence (Q9BR01 1-284): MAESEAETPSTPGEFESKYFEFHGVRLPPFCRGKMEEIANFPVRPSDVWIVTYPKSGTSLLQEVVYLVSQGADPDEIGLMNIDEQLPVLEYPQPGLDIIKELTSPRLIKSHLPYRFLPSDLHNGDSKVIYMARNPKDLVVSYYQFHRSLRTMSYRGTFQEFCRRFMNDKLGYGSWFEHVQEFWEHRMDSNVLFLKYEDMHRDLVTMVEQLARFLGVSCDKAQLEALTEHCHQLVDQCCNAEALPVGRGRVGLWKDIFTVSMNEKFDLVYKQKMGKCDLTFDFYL
Summary of the method: (§1)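 Cytosols of S. typhimurium TA1538 expressing single SULT forms (25–200 µg protein) were incubated with varied HMF, 50 µM PAPS, 5 mM MgCl2 in 50 mM potassium phosphate pH 7.4 at 37 °C for 30 min. SMF formed was quantified by UPLC-MS/MS against an external calibration line.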

hSULT1A2 = molecular target: T2, hSULT1A2 (Homo sapiens, UniProt P50226)
T2 construct: made in house; host or cells: Salmonella typhimurium TA1538 (cytosolic fraction, not purified)
Summary of the method: as §1

mSult1a1 = molecular target: T3, mSult1a1 (Mus musculus, UniProt P52840)
T3 construct: made in house; host or cells: Salmonella typhimurium TA1538 (cytosolic fraction, enzyme not purified)
Summary of the method: as §1

hSULT2B1a = molecular target: T4, hSULT2B1a (Homo sapiens, UniProt O00204)
T4 construct: made in house; host or cells: Salmonella typhimurium TA1538 (cytosolic fraction, not purified)
T4 sequence (O00204 1-350 isoform O00204-2): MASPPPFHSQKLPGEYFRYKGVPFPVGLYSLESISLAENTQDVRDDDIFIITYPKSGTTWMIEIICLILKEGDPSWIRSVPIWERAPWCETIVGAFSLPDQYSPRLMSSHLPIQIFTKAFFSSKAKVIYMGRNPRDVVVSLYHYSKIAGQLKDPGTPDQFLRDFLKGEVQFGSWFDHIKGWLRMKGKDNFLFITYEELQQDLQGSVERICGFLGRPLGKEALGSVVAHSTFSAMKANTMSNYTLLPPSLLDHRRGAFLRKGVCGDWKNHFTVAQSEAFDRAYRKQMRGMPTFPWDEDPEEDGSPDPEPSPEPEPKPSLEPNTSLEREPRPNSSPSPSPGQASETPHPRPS
Summary of the method: as §1

[1] = HMF sulfoconjugation, Michaelis-Menten fit

T3 sequence (P52840 whole entry): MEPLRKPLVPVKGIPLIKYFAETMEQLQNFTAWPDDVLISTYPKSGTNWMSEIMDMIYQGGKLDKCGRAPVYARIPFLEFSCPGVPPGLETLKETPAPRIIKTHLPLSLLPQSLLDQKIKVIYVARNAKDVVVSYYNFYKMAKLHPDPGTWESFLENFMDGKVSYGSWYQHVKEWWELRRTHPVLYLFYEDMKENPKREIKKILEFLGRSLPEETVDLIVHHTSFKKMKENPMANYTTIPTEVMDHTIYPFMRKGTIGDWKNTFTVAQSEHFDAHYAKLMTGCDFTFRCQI
T2 sequence (P50226 whole entry): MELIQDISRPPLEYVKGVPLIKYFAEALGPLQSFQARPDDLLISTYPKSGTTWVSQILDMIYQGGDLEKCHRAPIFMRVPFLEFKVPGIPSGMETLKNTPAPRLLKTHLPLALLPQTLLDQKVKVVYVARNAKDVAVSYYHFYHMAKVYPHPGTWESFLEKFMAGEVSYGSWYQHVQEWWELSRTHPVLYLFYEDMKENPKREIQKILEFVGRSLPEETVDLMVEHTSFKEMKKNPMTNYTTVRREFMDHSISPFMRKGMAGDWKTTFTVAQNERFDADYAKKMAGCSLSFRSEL

For O=Cc1ccc(CO)o1 [HMF, 5-Hydroxymethylfurfural], the Rate of sulfoconjugation (hSULT4A1; 0.1 mM HMF) was <0.5 pmol/mg/min, the Rate of sulfoconjugation (hSULT4A1; 1 mM HMF) was <0.5 pmol/mg/min and the Rate of sulfoconjugation (hSULT4A1; 10 mM HMF) was <0.5 pmol/mg/min. The Rate of sulfoconjugation (hSULT4A1; 100 mM HMF) was <0.5 pmol/mg/min, the Rate of sulfoconjugation (hSULT1A2; 0.1 mM HMF) was <0.5 pmol/mg/min and the Rate of sulfoconjugation (hSULT1A2; 1 mM HMF) was 15.2 ± 4.5 pmol/mg/min. For the same compound, the Rate of sulfoconjugation (hSULT1A2; 10 mM HMF) was 130 ± 53 pmol/mg/min, the Rate of sulfoconjugation (hSULT1A2; 100 mM HMF) was 628 ± 233 pmol/mg/min and the “K M” value (hSULT1A2; [1]) was 56.5 ± 5.4 mM. For the same compound, the Rate of sulfoconjugation (mSult1a1; 0.1 mM HMF) was 76.6 ± 14.4 pmol/mg/min, the Rate of sulfoconjugation (mSult1a1; 1 mM HMF) was 722 ± 93 pmol/mg/min and the Rate of sulfoconjugation (mSult1a1; 10 mM HMF) was 2,010 ± 210 pmol/mg/min. For the same compound, the Rate of sulfoconjugation (mSult1a1; 100 mM HMF) was 1,970 ± 70 pmol/mg/min, the “K M” value (mSult1a1; [1]) was 2.0 ± 0.3 mM and the Rate of sulfoconjugation (hSULT2B1a; 0.1 mM HMF) was <0.5 pmol/mg/min. The Rate of sulfoconjugation (hSULT2B1a; 1 mM HMF) was <0.5 pmol/mg/min, the Rate of sulfoconjugation (hSULT2B1a; 10 mM HMF) was <0.5 pmol/mg/min and the Rate of sulfoconjugation (hSULT2B1a; 100 mM HMF) was <0.5 pmol/mg/min.
